Our source for the Kd values is US11319299B2, “Substituted carboxamides as inhibitors of WDR5 protein-protein binding” (PROPELLON THERAPEUTICS INC., priority 2016, dated 2022).

In this experiment the target is WDR5 (Homo sapiens (Human), UniProt P61964). Nature of the experiment: Surface Plasmon Resonance (SPR) assay, KD and residence time. Format: binding. The note with it: surface plasmon resonance (SPR) assay; read-out: WDR5 binding affinity (KD). On the technique in general: Surface plasmon resonance follows binding to a sensor surface in real time, without labels.
Take `C[C@@H]1CN(c2cc(F)c(C3=CCN(Cc4ccc(N5CCN(C)CC5)cc4)CC3)cc2NC(=O)c2c[nH]c(=O)cc2C(F)(F)F)C[C@H](C)N1C` [Example 166, N-[4-fluoro-5-[1-[[4-(4-methylpiperazin-1-yl)phenyl]methyl]-3,6-dihydro-2H-pyridin-4-yl]-2-[(3R,5S)-3,4,5-trimethylpiperazin-1-yl]phenyl]-6-oxo-4-(trifluoromethyl)-1H-pyridine-3-carboxamide]: the Kd (commonly the equilibrium constant for the complex coming apart) was determined as 0.23 nM.
Then `C[C@@H]1CN(c2cc(F)c(C3=CCN(CC4CCOCC4)CC3)cc2NC(=O)c2c[nH]c(=O)cc2C(F)(F)F)C[C@H](C)N1C` [Example 167, N-[4-fluoro-5-[1-(oxan-4-ylmethyl)-3,6-dihydro-2H-pyridin-4-yl]-2-[(3R,5S)-3,4,5-trimethylpiperazin-1-yl]phenyl]-6-oxo-4-(trifluoromethyl)-1H-pyridine-3-carboxamide], with 5.76 nM; and `CN(C)[C@@H]1CCN(c2cc(F)c(-c3cnc(N4CCOCC4)nc3)cc2NC(=O)c2cc(Cl)cc(Cl)c2)C1` [Example 168, 3,5-dichloro-N-[4-fluoro-5-(2-morpholin-4-ylpyrimidin-5-yl)-2-[(3R)-3-(dimethylamino)pyrrolidin-1-yl]phenyl]benzamide], with 30 nM.
The same measure for `CN(C)[C@@H]1CCN(c2cc(F)c(-c3ccc(N4CCOCC4)cc3)cc2NC(=O)c2cc(Cl)cc(Cl)c2)C1` [Example 169, 3,5-dichloro-N-[4-fluoro-5-(4-morpholin-4-ylphenyl)-2-[(3R)-3-(dimethylamino)pyrrolidin-1-yl]phenyl]benzamide]: 122 nM; for `C[C@@H]1CN(c2cc(F)c(-c3cnc(N4CCOCC4)c(C#N)c3)cc2NC(=O)c2c[nH]c(=O)cc2C(F)(F)F)C[C@H](C)N1C` [Example 170, N-[5-(5-cyano-6-morpholin-4-ylpyridin-3-yl)-4-fluoro-2-[(3R,5S)-3,4,5-trimethylpiperazin-1-yl]phenyl]-6-oxo-4-(trifluoromethyl)-1H-pyridine-3-carboxamide]: 1.17 nM.
The same measure for `Cc1cc(-c2cc(NC(=O)c3c[nH]c(=O)cc3C(F)(F)F)c(N3C[C@@H](C)N(C)[C@@H](C)C3)cc2F)cnc1N1CCOCC1` [Example 171, N-[4-fluoro-5-(5-methyl-6-morpholin-4-ylpyridin-3-yl)-2-[(3R,5S)-3,4,5-trimethylpiperazin-1-yl]phenyl]-6-oxo-4-(trifluoromethyl)-1H-pyridine-3-carboxamide]: 2.5 nM.
With `C[C@@H]1CN(c2cc(F)c(-c3cnc4c(c3)CCN4)cc2NC(=O)c2c[nH]c(=O)cc2C(F)(F)F)C[C@H](C)N1C` [Example 172, N-[5-(2,3-dihydro-1H-pyrrolo[2,3-b]pyridin-5-yl)-4-fluoro-2-[(3R,5S)-3,4,5-trimethylpiperazin-1-yl]phenyl]-6-oxo-4-(trifluoromethyl)-1H-pyridine-3-carboxamide], the Kd came to 10.3 nM.
Then `C[C@@H]1CN(c2cc(F)c(-c3cncc(C(F)(F)F)c3)cc2NC(=O)c2c[nH]c(=O)cc2C(F)(F)F)C[C@H](C)N1C` [Example 173, N-[4-fluoro-2-[(3R,5S)-3,4,5-trimethylpiperazin-1-yl]-5-[5-(trifluoromethyl)pyridin-3-yl]phenyl]-6-oxo-4-(trifluoromethyl)-1H-pyridine-3-carboxamide], with 2.78 nM; and `C[C@@H]1CN(c2cc(F)c(-c3cncc(C(=O)NC(C)(C)C)c3)cc2NC(=O)c2c[nH]c(=O)cc2C(F)(F)F)C[C@H](C)N1C` [Example 174, N-[5-[5-(tert-butylcarbamoyl)pyridin-3-yl]-4-fluoro-2-[(3R,5S)-3,4,5-trimethylpiperazin-1-yl]phenyl]-6-oxo-4-(trifluoromethyl)-1H-pyridine-3-carboxamide], with 1.53 nM; and `C[C@@H]1CN(c2cc(F)c(-c3cnc(N4CCOCC4)nc3)cc2NC(=O)c2cc(Cl)cc(C(F)(F)F)c2)C[C@H](C)N1C` [Example 175, 3-chloro-N-[4-fluoro-5-(2-morpholin-4-ylpyrimidin-5-yl)-2-[(3R,5S)-3,4,5-trimethylpiperazin-1-yl]phenyl]-5-(trifluoromethyl)benzamide], with 20.6 nM.
The same measure for `C[C@@H]1CN(c2cc(F)c(-c3cnc(N4CCOCC4)nc3)cc2NC(=O)c2cc(F)cc(C(F)(F)F)c2)C[C@H](C)N1C` [Example 176, 3-fluoro-N-[4-fluoro-5-(2-morpholin-4-ylpyrimidin-5-yl)-2-[(3R,5S)-3,4,5-trimethylpiperazin-1-yl]phenyl]-5-(trifluoromethyl)benzamide]: 50.9 nM.
Then `CN(C)[C@@H]1CCN(c2cc(F)c(-c3ccc(N4CCOCC4)cc3)cc2NC(=O)c2cn[nH]c2)C1` [Example 177, N-[4-fluoro-5-(4-morpholin-4-ylphenyl)-2-[(3R)-3-(dimethylamino)pyrrolidin-1-yl]phenyl]-1H-pyrazole-4-carboxamide], with > 200 nM; and `C[C@@H]1CN(c2cc(F)c(-c3cncc(C(N)=O)c3)cc2NC(=O)c2c[nH]c(=O)cc2C(F)(F)F)C[C@H](C)N1C` [Example 179, N-[5-(5-carbamoylpyridin-3-yl)-4-fluoro-2-[(3R,5S)-3,4,5-trimethylpiperazin-1-yl]phenyl]-6-oxo-4-(trifluoromethyl)-1H-pyridine-3-carboxamide], with 11.5 nM; and `C[C@@H]1CN(c2cc(F)c(-c3cncc(C(F)(F)F)c3)cc2NC(=O)c2cn(C)c(=O)cc2C(F)(F)F)C[C@H](C)N1C` [Example 180, N-[4-fluoro-2-[(3R,5S)-3,4,5-trimethylpiperazin-1-yl]-5-[5-(trifluoromethyl)pyridin-3-yl]phenyl]-1-methyl-6-oxo-4-(trifluoromethyl)pyridine-3-carboxamide], with 35.4 nM.
For `CN(C)[C@@H]1CCN(c2cc(F)c(-c3cnc(N4CCOCC4)nc3)cc2NC(=O)c2cn(C)c(=O)cc2C(F)(F)F)C1` [Example 184, N-[4-fluoro-5-(2-morpholin-4-ylpyrimidin-5-yl)-2-[(3R)-3-(dimethylamino)pyrrolidin-1-yl]phenyl]-1-methyl-6-oxo-4-(trifluoromethyl)pyridine-3-carboxamide], the Kd is 9.8 nM.
The same measure for `CN(C)[C@@H]1CCN(c2cc(F)c(-c3cnc(N4CCOCC4)nc3)cc2NC(=O)c2c[nH]nc2C(F)(F)F)C1` [Example 185, N-[4-fluoro-5-(2-morpholin-4-ylpyrimidin-5-yl)-2-[(3R)-3-(dimethylamino)pyrrolidin-1-yl]phenyl]-3-(trifluoromethyl)-1H-pyrazole-4-carboxamide]: 29.8 nM; for `C[C@@H]1CN(c2cc(F)c(-c3cnc(N4CCOCC4)nc3)cc2NC(=O)c2cccc(C(F)(F)F)c2)C[C@H](C)N1C` [Example 186, N-[4-fluoro-5-(2-morpholin-4-ylpyrimidin-5-yl)-2-[(3R,5S)-3,4,5-trimethylpiperazin-1-yl]phenyl]-3-(trifluoromethyl)benzamide]: 40.2 nM.
The same measure for `C[C@@H]1CN(c2cc(F)c(-c3cnc(N4CCOCC4)nc3)cc2NC(=O)c2cncnc2C(F)(F)F)C[C@H](C)N1C` [Example 187, N-[4-fluoro-5-(2-morpholin-4-ylpyrimidin-5-yl)-2-[(3R,5S)-3,4,5-trimethylpiperazin-1-yl]phenyl]-4-(trifluoromethyl)pyrimidine-5-carboxamide]: 209 nM; for `C[C@@H]1CN(c2cc(F)c(-c3cnc(N4CCOCC4)nc3)cc2NC(=O)c2scnc2C(F)(F)F)C[C@H](C)N1C` [Example 188, N-[4-fluoro-5-(2-morpholin-4-ylpyrimidin-5-yl)-2-[(3R,5S)-3,4,5-trimethylpiperazin-1-yl]phenyl]-4-(trifluoromethyl)-1,3-thiazole-5-carboxamide]: 93.2 nM; for `C[C@@H]1CN(c2cc(F)c(-c3cnc(N4CCOCC4)nc3)cc2NC(=O)c2cc(C(F)(F)F)ccc2F)C[C@H](C)N1C` [Example 189, 2-fluoro-N-[4-fluoro-5-(2-morpholin-4-ylpyrimidin-5-yl)-2-[(3R,5S)-3,4,5-trimethylpiperazin-1-yl]phenyl]-5-(trifluoromethyl)benzamide]: 442 nM.
Consider `COc1cc(F)cc(C(=O)Nc2cc(-c3cnc(N4CCOCC4)nc3)c(F)cc2N2C[C@@H](C)N(C)[C@@H](C)C2)c1` [Example 190, 3-fluoro-N-[4-fluoro-5-(2-morpholin-4-ylpyrimidin-5-yl)-2-[(3R,5S)-3,4,5-trimethylpiperazin-1-yl]phenyl]-5-methoxybenzamide], for which the Kd worked out at 14.7 nM.
Then `C[C@@H]1CN(c2cc(F)c(-c3ccc(N4CCOCC4)cc3)cc2NC(=O)c2cc(Cl)cc(Cl)c2)C[C@H](C)N1C` [Example 191, 3,5-dichloro-N-[4-fluoro-5-(4-morpholin-4-ylphenyl)-2-[(3R,5S)-3,4,5-trimethylpiperazin-1-yl]phenyl]benzamide], with 21.5 nM.
In the case of `C[C@@H]1CN(c2cc(F)c(-c3cnc(N4CCCN(C)CC4)nc3)cc2NC(=O)c2ccc(F)cc2C(F)(F)F)C[C@H](C)N1C` [Example 203, 4-fluoro-N-[4-fluoro-5-[2-(4-methyl-1,4-diazepan-1-yl)pyrimidin-5-yl]-2-[(3R,5S)-3,4,5-trimethylpiperazin-1-yl]phenyl]-2-(trifluoromethyl)benzamide], the Kd was 1.66 nM.
Then `C[C@@H]1CN(c2cc(F)c(-c3ccc(N4CCOCC4)cc3)cc2NC(=O)c2cn(C)c(=O)cc2C(F)(F)F)C[C@H](C)N1C` [Example 204, N-[4-fluoro-5-(4-morpholin-4-ylphenyl)-2-[(3R,5S)-3,4,5-trimethylpiperazin-1-yl]phenyl]-1-methyl-6-oxo-4-(trifluoromethyl)pyridine-3-carboxamide], with 13.8 nM; and `C[C@@H]1CN(c2cc(F)c(-c3cncc(C#N)c3)cc2NC(=O)c2c[nH]c(=O)cc2C(F)(F)F)C[C@H](C)N1C` [Example 205, N-[5-(5-cyanopyridin-3-yl)-4-fluoro-2-[(3R,5S)-3,4,5-trimethylpiperazin-1-yl]phenyl]-6-oxo-4-(trifluoromethyl)-1H-pyridine-3-carboxamide], with 8.15 nM; and `C[C@@H]1CN(c2cc(F)c(-c3cncc(Cl)c3)cc2NC(=O)c2c[nH]c(=O)cc2C(F)(F)F)C[C@H](C)N1C` [Example 206, N-[5-(5-chloropyridin-3-yl)-4-fluoro-2-[(3R,5S)-3,4,5-trimethylpiperazin-1-yl]phenyl]-6-oxo-4-(trifluoromethyl)-1H-pyridine-3-carboxamide], with 3.85 nM.
